From patent publication US8440717B2, “Hair growth regulating agent” (Kao Corporation, priority 2008, dated 2013) come the findings set out here.

This assay has as its system porcine hair follicles. The assay is described as follows: Hair growth suppressing effect by organ culture method using porcine hair follicles. Type of assay: cell-based, pig. To be noted: for activity at 3e-05 % / activity at 0.003 %: 120 h, day 5 after start of culture with sample-containing medium; for activity at 3e-05 %: concentration 0.00003%; for activity at 0.003 %: concentration 0.003%; for activity at 0.01 %: concentration 0.01%. As to the method: The skin of a pork pig was cut into pieces of appropriate size, and excess fat was removed. For disinfection, the skin pieces were immersed in a Hibitane solution under sterile conditions for 10 to 20 minutes. The thus-disinfected skin pieces were washed several times with D-PBS.
Subsequently, hair follicles were isolated from the thus-treated skin pieces under a stereomicroscope by means of tweezers and a scalpel (FEATHER No. 10), and the hair follicles were placed on William's Medium E (Gibco cat. No. 12551-032) supplemented with penicillin/streptomycin (Gibco cat. No. 15140-122) solution by 10.
The isolated hair follicles were transferred to a 24-well culture plate (one follicle/well) together with the aforementioned culture medium (400 μL), and cultured in an incubator (37° C., 5% CO2) for two days.
Subsequently, compounds synthesized in Example 1 (compounds 2, 6, 7, and 9 to 13) were diluted with the aforementioned culture medium, to thereby prepare sample-containing media. Each of the thus-prepared sample-containing media was used for replacement. Similarly, N,N-dimethylglycine methyl ester (DMG) and 1,8-diaminooctane (1,8-DAO) were diluted with the aforementioned culture medium, to thereby prepare sample-containing media. Each of the thus-prepared sample-containing media was also used for replacement.
The medium for culture of hair follicles was replaced with each of the sample-containing media, and thereafter, replaced with a sample-containing medium every one or two days. At days five or six after the start of culture with the sample-containing medium, the elongation of hair follicles (i.e., elongation of hair) was measured and compared with that of the control in which medium was replaced with only the non-sample-containing medium. The elongation of hair follicles (i.e., elongation of hair) in the control medium was taken as 100%.
The sample concentration of each sample-containing medium was set within a range that the sample is completely dissolved in the medium, and at non-cytotoxic levels which cause no reduction of cell viability with 24-hour addition of the sample to epidermal cells.

[1] abbreviates: Sus scrofa, read-out: Percent growth of hair follicles (control = 100%).
Setting [2] is: Sus scrofa, 144 h, day 6 after start of culture with sample-containing medium, read-out: Percent growth of hair follicles (control = 100%).

With `NCCCCCCCCN` [1,8-DAO, 1,8-diaminooctane, reference compound], the activity at 0.03 % (Sus scrofa, 144 h, day 6 after start of culture with sample-containing medium, concentration 0.03%, read-out: Percent growth of hair follicles (control = 100%)) came to 87.9%.
`CCCCCCCCCCCCNC(=O)CN(C)C` [Compound 2, 2-Dimethylamino-N-Dodecyl-Acetamide]: the activity at 3e-05 % under setting [1] stood at 108%.
With `CCNC(=O)CN(C)C` [Compound 6, 2-Dimethylamino-N-Ethyl-Acetamide], the activity at 0.003 % under setting [1] stood at 91.6%.
Consider `CCCCCCCCCCCCNC(=O)C[N+](C)(C)C.[Cl-]` [Compound 7, Dodecylcarbamoylmethyltrimethylammonium Chloride], for which, under setting [1], the activity at 3e-05 % came to 42.4%. In addition, the “suppressive effect on growth of hair follicles (i.e., hair growth), rank among tested compounds” value (comparison across Tables 1 and 2, compound 7 at 0.000030) is on record as “highest suppressive effect”.
Consider `CN(C)CC(=O)NCCOCCOCCNC(=O)CN(C)C` [Compound 9, 2-Dimethylamino-N-(2-{2-[2-(2-Dimethylamino-Acetylamino)-Ethoxy]-Ethoxy}-Ethyl)-Acetamide], for which the activity at 0.01 % under setting [2] came out at 62.4%.
Same read-out and setting: the value for `CN(C)CC(=O)NCCCCCCCCNC(=O)CN(C)C` [Compound 10, 2-Dimethylamino-N-[8-(2-Dimethylamino-Acetylamino)-Octyl]-Acetamide] was 54.7%.
As to `CN(C)CC(=O)NCCOCCOCCOCCNC(=O)CN(C)C` [Compound 11, 2-Dimethylamino-N-[2-(2-{2-[2-(2-Dimethylamino-Acetylamino)-Ethoxy]-Ethoxy}-Ethoxy)-Ethyl]-Acetamide], under setting [1], the activity at 0.003 % was found to be 97%.
`CN(C)CC(=O)NCCCCCCCCCCCCNC(=O)CN(C)C` [Compound 12, 2-Dimethylamino-N-[12-(2-Dimethylamino-Acetylamino)-Dodecyl]-Acetamide]: under setting [1], the activity at 0.003 % worked out at 48.7%.
For the compound `CN(C)CC(=O)NCCCCNC(=O)CN(C)C` [Compound 13, 2-Dimethylamino-N-[4-(2-Dimethylamino-Acetamino)-Butyl]-Acetamide], the activity at 0.003 % under setting [1] was determined as 79.1%.
